These results are taken from patent US11046686B2, “Thiadiazole IRAK4 compounds” (Gilead Sciences, Inc., priority 2018, dated 2021).

Molecules are shown by their SMILES. Read-outs that look alike come from different tables or passages of the source.

The test system of one assay is TNFα. The assay is described as follows: IRAK4 Monocyte TNFα Cell Based Assay. The note with it: human monocytes, second part of Table 2, compounds 33-343, unit inferred, read-out: EC50 MONO TNF HTRF. On the set-up: species or system human. The gist of the method: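 Human monocytes (5,000/well) pretreated with compound 1 h at 37 °C (0.1% DMSO final), then stimulated with 50 pg/ml LPS for 4 h. Secreted TNFα measured by TR-FRET two-antibody detection after overnight incubation at room temperature; % control relative to unstimulated and LPS-stimulated wells.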

In another assay the target is IRAK4 enzyme (Homo sapiens (Human), UniProt Q9NWZ3). The assay is described as follows: IRAK4 Biochemical Assay (TR-FRET, STK1 KinEASE). The method, boiled down: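 IRAK4 (0.75 nM) preincubated 15 min with compound and […] STK1 peptide, then started with 500 μM ATP in HEPES pH 7.0 buffer with MgCl2, DTT, BSA, NP-40; 120 min at room temperature.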
Where [1] appears, read: second part of Table 2, compounds 33-343, unit inferred, read-out: IC50 IRAK4-HTBS.

IRAK4 enzyme, sequence (Q9NWZ3 whole entry): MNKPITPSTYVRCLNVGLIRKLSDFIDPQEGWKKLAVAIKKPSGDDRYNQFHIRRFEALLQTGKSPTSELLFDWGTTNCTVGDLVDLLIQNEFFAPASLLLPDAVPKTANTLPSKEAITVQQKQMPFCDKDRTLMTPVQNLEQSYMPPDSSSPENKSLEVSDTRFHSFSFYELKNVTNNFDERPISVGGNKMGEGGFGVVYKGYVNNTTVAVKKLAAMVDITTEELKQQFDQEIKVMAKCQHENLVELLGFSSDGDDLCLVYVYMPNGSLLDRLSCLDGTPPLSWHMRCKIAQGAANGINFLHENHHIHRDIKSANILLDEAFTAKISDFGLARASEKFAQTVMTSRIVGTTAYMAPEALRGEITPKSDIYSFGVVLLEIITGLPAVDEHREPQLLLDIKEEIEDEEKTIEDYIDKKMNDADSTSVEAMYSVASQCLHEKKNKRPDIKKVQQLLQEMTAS

On to `CC(C)Nc1cc(-c2ccc3cc(C#N)cnn23)ncc1-c1nnc(N2CC[C@](C)(O)[C@H](F)C2)s1` [Example 192, 7-(5-(5-((3R,4S)-3-fluoro-4-hydroxy-4-methylpiperidin-1-yl)-1,3,4-thiadiazol-2-yl)-4-(isopropylamino)pyridin-2-yl)pyrrolo[1,2-b]pyridazine-3-carbonitrile], for which, in the assay on TNFα (Homo sapiens, Monocyte), the EC50 turned out to be 24.6 nM. On IRAK4 enzyme, this compound had an IC50 of 1.21 nM.

Consider `CC(=O)NC1[C@@H]2COC[C@H]1CN(c1nnc(-c3cnc(-c4ccc5cc(C#N)cnn45)cc3NC(C)C)s1)C2` (stereo partly drawn) [Example 193, N-((1R,5S)-7-(5-(6-(3-cyanopyrrolo[1,2-b]pyridazin-7-yl)-4-(isopropylamino)pyridin-3-yl)-1,3,4-thiadiazol-2-yl)-3-oxa-7-azabicyclo[3.3.1]nonan-9-yl)acetamide], for which, in the assay on TNFα (Homo sapiens, Monocyte), the 50% effective concentration (EC50) was found to be 4.1 nM. The compound also displayed an IC50 against IRAK4 enzyme of 0.68 nM.

As for `CC(=O)NC1CCC(F)(c2nnc(-c3cnc(-c4ccc5cc(C#N)cnn45)cc3NC(C)C)s2)CC1` (stereo not drawn) [Example 194, N-(4-(5-(6-(3-cyanopyrrolo[1,2-b]pyridazin-7-yl)-4-(isopropylamino)pyridin-3-yl)-1,3,4-thiadiazol-2-yl)-4-fluorocyclohexyl)acetamide], in the assay with TNFα (Homo sapiens, Monocyte), the 50% effective concentration (EC50) came out at 64 nM. Besides, the IC50 on IRAK4 enzyme came out at 0.75 nM.

Consider `CC(=O)NC12C3C4C1C1C2C3C41c1nnc(-c2cnc(-c3ccc4cc(C#N)cnn34)cc2NC(C)C)s1` (stereo not drawn) [Example 197, N-(4-(5-(6-(3-cyanopyrrolo[1,2-b]pyridazin-7-yl)-4-(isopropylamino)pyridin-3-yl)-1,3,4-thiadiazol-2-yl)cuban-1-yl)acetamide], for which, in the assay on TNFα (Homo sapiens, Monocyte), the EC50 was 32.9 nM. The compound also registered an IC50 on IRAK4 enzyme of 1.57 nM.

Regarding `C[C@]1(O)CCN(c2nnc(-c3cnc(-c4ccc5cc(C#N)cnn45)cc3NC3CCOCC3)s2)C[C@@H]1F` [Example 204, 7-(5-(5-((3S,4S)-3-fluoro-4-hydroxy-4-methylpiperidin-1-yl)-1,3,4-thiadiazol-2-yl)-4-((tetrahydro-2H-pyran-4-yl)amino)pyridin-2-yl)pyrrolo[1,2-b]pyridazine-3-carbonitrile], the concentration for a half-maximal effect (EC50) in the assay on TNFα (Homo sapiens, Monocyte) is 3.5 nM. Moreover, the IC50 against IRAK4 enzyme was 0.35 nM.

As for `C[C@]1(O)CCN(c2nnc(-c3cnc(-c4ccc5cc(C#N)cnn45)cc3NC3COC3)s2)C[C@@H]1F` [Example 207, 7-(5-(5-((3S,4S)-3-fluoro-4-hydroxy-4-methylpiperidin-1-yl)-1,3,4-thiadiazol-2-yl)-4-(oxetan-3-ylamino)pyridin-2-yl)pyrrolo[1,2-b]pyridazine-3-carbonitrile], in the assay with TNFα (Homo sapiens, Monocyte), the 50% effective concentration (EC50) was 7.9 nM. The compound also returned an IC50 on IRAK4 enzyme of 0.69 nM.

Turning to `C[C@]1(O)CC[C@@H](c2nnc(-c3cnc(-c4ccc5cc(C#N)cnn45)cc3NC3COC3)s2)CC1` [Example 208, 7-(5-(5-((1s,4s)-4-hydroxy-4-methylcyclohexyl)-1,3,4-thiadiazol-2-yl)-4-(oxetan-3-ylamino)pyridin-2-yl)pyrrolo[1,2-b]pyridazine-3-carbonitrile], the EC50 in the assay on TNFα worked out at 13.6 nM. For the same compound, the 50% inhibitory concentration (IC50) at IRAK4 enzyme (setting [1]) worked out at 0.67 nM.

Turning to `CC(C)Nc1cc(-c2ccc3cc(C#N)cnn23)ncc1-c1nncs1` [Example 211, 7-(4-(isopropylamino)-5-(1,3,4-thiadiazol-2-yl)pyridin-2-yl)pyrrolo[1,2-b]pyridazine-3-carbonitrile], the concentration giving a half-maximal response (EC50) in the assay with TNFα (Homo sapiens, Monocyte) was 78.2 nM. The IC50 at IRAK4 enzyme (setting [1]) was 0.98 nM.

For `CC(C)Nc1cc(-c2ccc3cc(C#N)cnn23)ncc1-c1nnc(CCN)s1` [Example 212, 7-(5-(5-(2-aminoethyl)-1,3,4-thiadiazol-2-yl)-4-(isopropylamino)pyridin-2-yl)pyrrolo[1,2-b]pyridazine-3-carbonitrile], in the assay on TNFα (Homo sapiens, Monocyte), the EC50 stood at 305 nM. Besides, at IRAK4 enzyme (setting [1]), the IC50 was 1.01 nM.

As for `CC(C)Nc1cc(-c2ccc3cc(C#N)cnn23)ncc1-c1nnc(C(=O)N2CCC[C@@H]2CO)s1` [Example 214, (R)-7-(5-(5-(2-(hydroxymethyl)pyrrolidine-1-carbonyl)-1,3,4-thiadiazol-2-yl)-4-(isopropylamino)pyridin-2-yl)pyrrolo[1,2-b]pyridazine-3-carbonitrile], in the assay with TNFα (Homo sapiens, Monocyte), the EC50 amounted to 33.2 nM. This compound returned an IC50 on IRAK4 enzyme of 0.46 nM.

For the compound `CC(C)Nc1cc(-c2ccc3cc(C#N)cnn23)ncc1-c1nnc(C(=O)N2CC[C@H](CO)C2)s1` [Example 221, (S)-7-(5-(5-(3-(hydroxymethyl)pyrrolidine-1-carbonyl)-1,3,4-thiadiazol-2-yl)-4-(isopropylamino)pyridin-2-yl)pyrrolo[1,2-b]pyridazine-3-carbonitrile], the EC50 in the assay with TNFα (Homo sapiens, Monocyte) came to 2320 nM. The same compound came in with an IC50 against IRAK4 enzyme of 0.92 nM.

With `CC(C)Nc1cc(-c2ccc3cc(C#N)cnn23)ncc1-c1nnc(C(=O)N2CC[C@@H](NC(=O)OC(C)(C)C)C2)s1` [Example 222, tert-butyl (R)-(1-(5-(6-(3-cyanopyrrolo[1,2-b]pyridazin-7-yl)-4-(isopropylamino)pyridin-3-yl)-1,3,4-thiadiazole-2-carbonyl)pyrrolidin-3-yl)carbamate], the EC50 in the assay with TNFα (Homo sapiens, Monocyte) was found to be 1780 nM. In addition, at IRAK4 enzyme, the IC50 is 1.79 nM.

`CC(C)Nc1cc(-c2ccc3cc(C#N)cnn23)ncc1-c1nnc(C(=O)N2CC[C@H](NC(=O)OC(C)(C)C)C2)s1` [Example 223, tert-butyl (S)-(1-(5-(6-(3-cyanopyrrolo[1,2-b]pyridazin-7-yl)-4-(isopropylamino)pyridin-3-yl)-1,3,4-thiadiazole-2-carbonyl)pyrrolidin-3-yl)carbamate]: the EC50 in the assay with TNFα (Homo sapiens, Monocyte) worked out at 1360 nM. The compound also registered an IC50 against IRAK4 enzyme of 1.43 nM.

As to `CC(=O)NC12CCC(c3nnc(-c4cnc(-c5ccc6cc(C#N)cnn56)cc4NC(C)C)s3)(CC1)C2` [Example 284, N-(4-(5-(6-(3-cyanopyrrolo[1,2-b]pyridazin-7-yl)-4-(isopropylamino)pyridin-3-yl)-1,3,4-thiadiazol-2-yl)bicyclo[2.2.1]heptan-1-yl)acetamide], the EC50 in the assay with TNFα (Homo sapiens, Monocyte) stood at 17.6 nM. This compound also came in with an IC50 on IRAK4 enzyme of 0.69 nM.

Turning to `CC(C)Nc1cc(-c2ccc3cc(C#N)cnn23)ncc1-c1nnc(N2CC(C)(O)C2)s1` [Example 286, 7-(5-(5-(3-hydroxy-3-methylazetidin-1-yl)-1,3,4-thiadiazol-2-yl)-4-(isopropylamino)pyridin-2-yl)pyrrolo[1,2-b]pyridazine-3-carbonitrile], the concentration giving a half-maximal response (EC50) with TNFα (Homo sapiens, Monocyte) is 21.4 nM. Further, the midpoint of inhibition on IRAK4 enzyme, the IC50, lay at 0.63 nM.

For `CC(=O)NC12CCC(c3nnc(-c4cnc(-c5ccc6cc(C#N)cnn56)cc4NC(C)C)s3)(C1)C2` [Example 288, N-(4-(5-(6-(3-cyanopyrrolo[1,2-b]pyridazin-7-yl)-4-(isopropylamino)pyridin-3-yl)-1,3,4-thiadiazol-2-yl)bicyclo[2.1.1]hexan-1-yl)acetamide], the EC50 with TNFα (Homo sapiens, Monocyte) worked out at 19.8 nM. Also, the midpoint of inhibition against IRAK4 enzyme, the IC50, lay at 0.72 nM.

In the case of `CC(C)Nc1cc(-c2ccc3cc(C#N)cnn23)ncc1-c1nnc(N2CC3CCC(C3)C2)s1` [Example 291, 7-(5-(5-(3-azabicyclo[3.2.1]octan-3-yl)-1,3,4-thiadiazol-2-yl)-4-(isopropylamino)pyridin-2-yl)pyrrolo[1,2-b]pyridazine-3-carbonitrile], the EC50 in the assay with TNFα (Homo sapiens, Monocyte) turned out to be 59.3 nM. On IRAK4 enzyme, the IC50 amounted to 1.78 nM.

On to `CC(C)Nc1cc(-c2ccc3cc(C#N)cnn23)ncc1-c1nnc(N2CC3(CCO3)C2)s1` [Example 293, 7-(5-(5-(1-oxa-6-azaspiro[3.3]heptan-6-yl)-1,3,4-thiadiazol-2-yl)-4-(isopropylamino)pyridin-2-yl)pyrrolo[1,2-b]pyridazine-3-carbonitrile], for which the EC50 in the assay with TNFα (Homo sapiens, Monocyte) stood at 365 nM. This compound displayed an IC50 against IRAK4 enzyme of 1.52 nM.
